Data from paper PMC7876056, “Population Pharmacokinetic Analysis of Yimitasvir in Chinese Healthy Volunteers and Patients With Chronic Hepatitis C Virus Infection” (Frontiers in Pharmacology, 2021).
Several values for one entry are separate records, joined by “and”; a condition that tells them apart may be missing. Identical values can stand only once. Like-named read-outs stand apart in the source and are kept apart here.

Assays:
[1] = Population pharmacokinetic model (Phoenix NLME, FOCE-ELS) of yimitasvir in Chinese healthy volunteers and HCV infection patients; assay type: in vivo, human
Procedure: The current population PK analysis of yimitasvir was performed using rich and sparse PK samples collected from six clinical pharmacology trials [4 phase 1 ([Zhao et al., 2019]), 1 phase 1b ([Zhang et al., 2018]) and 1 phase 2 studies] in Chinese healthy volunteers and HCV-infected patients. Rich sampling entailed serial blood sampling at defined time points, and sparse sampling (single sample) only in phase 2 study entailed blood collection at every study visits. Patients with genotype 1 HCV infection were eligible, while patients with prior use of direct-acting antiviral agents (DAA) for HCV infection treatment were excluded in phase 1b and phase 2 studies.
A fully validated liquid chromatography-tandem mass spectrometry (LC-MS/MS) method determining yimitasvir concentration in phase 1 and phase 1b studies had been reported elsewhere ([Zhang et al., 2018]; [Zhao et al., 2019]).
Plasma concentration of yimitasvir in phase 2 study was analyzed using a validated LC-MS/MS method equipped with a Shimadzu LC-30AD liquid chromatography-SCIEX API6500 mass spectrometer. Chromatographic retention and separation were achieved on a XBridge Peptide BEH C18, 50 × 2.1 mm, 3.5 μm column. Gradient elution was used with 2 mM ammonium acetate in water with 0.1% formic acid as mobile phase A and acetonitrile:methanol (30:70, v:v) as mobile phase B at a flow rate of 0.5 ml min^−1. The column temperature was maintained at 45°C. Quantitation was accomplished in positive mode with precursor-to-production pairs of m/z 428.5→315.3 for yimitasvir and m/z 432.5→319.5 for the internal standard d8-DAG (isotope-labelled yimitasvir), respectively.
Population pharmacokinetic analysis of yimitasvir was performed by Phoenix NLME software (Version 8.1, Certara) using the first-order conditional estimation-extended least squares (FOCE-ELS) method.
The structural model was first tested by fitting a one-compartment or two-compartment model to the log-transformed PK data. Different absorption models including first-order absorption with or without a lag time, sequential zero-first order absorption, transit absorption and saturable Michaelis-Menten absorption model, were also tested. The optimal structural model was selected based on the Akaike Information Criteria (AIC), minimization success, visual inspection of goodness-of-fit plots and individual fit.
Inter-subject variability was estimated by exponential model for PK parameters as follows (Eq. 1): θi=θTV×e^ηi, (1) where θi is the parameter estimation for the ith individual, θTV is the typical value of the parameter estimation in the population, ηi is a random variable which assumed to be normally distributed with a mean of 0 and a variance of ω^2. Proportional error model and proportional plus additive error model were tested as residual error models.
Sigmoidal maximum effect (Emax) (Eq. 2) and linear models (Eq. 3) were tested to quantify the relationship between bioavailability and dose: {F=θF ,Dose≤100 mgF=θF−Fmax×(Dose−100)/(F50+(Dose−100)),Dose>100 mg, (2) where θF is the bioavailability in individuals who received ≤100 mg yimitasvir, which was fixed to 1. Fmax is the maximal reduction in bioavailability and F50 is the dose associated with a half-maximal reduction in bioavailability. {F=θF ,Dose≤100 mgF=θF −Alpha×(Dose−100)/100,Dose>100 mg, (3) where Alpha is a slope term determining the relative change in bioavailability for each 100 mg increase in yimitasvir dose.
Subsequently, different covariates were tested using a stepwise forward inclusion [a decrease in objective function value (OFV) of > 6.63, p < 0.01] and a stricter backward exclusion procedure (an increase in OFV of > 10.83, p < 0.001). […]

[2] = Simulation of steady state exposure from the final population PK model (sensitive plot); assay type: in vivo, human; conditions: for AUC / Cmax: human, plasma, oral, 100 mg, 100 mg once daily for 12 weeks
Procedure: Individual empirical Bayes estimates PK parameters from the final model were used to predict the steady state exposure of yimitasvir. The simulated dosing regimen was yimitasvir 100 mg once daily for 12 consecutive weeks. […] The steady state exposure was calculated using PK parameters with incorporation of the isolated effect from the covariate and with other unaffected PK parameters fixed to the typical value.

[3] = set-up: method as in Zhang et al., 2018; conditions: patients, ref Zhang et al., 2018, cited from earlier work
[4] = mice; cited from earlier work
[5] = monkeys; cited from earlier work
[6] = humans; cited from earlier work
[7] = test system: P-glycoprotein (P-gp); conditions: cited from earlier work
[8] = final model estimate (RSE%), food = 2, high-fat meal
[9] = in the evening after dinner more than 4 h

Relative bioavailability of 200 mg to 100 mg ([1]; according to the final model): 87.1% | Relative bioavailability of 400 mg to 100 mg ([1]; according to the final model): 61.3% | CL/F ∼ Female (covariate coefficient) ([1]; bootstrap mean): −0.250 (−14.6) | F ∼ Food1 (covariate coefficient) ([1]; bootstrap mean): −0.312 (−34.9) | F ∼ Food2 (covariate coefficient) ([1]; bootstrap mean): −0.473 (−19.8) | Ka ∼ Food1 (covariate coefficient) ([1]; bootstrap mean): −1.72 (−10.5) | Ka ∼ Food2 (covariate coefficient) ([1]; bootstrap mean): −2.43 (−7.4) | Random effect CL/F (inter-individual variability) ([1]; bootstrap mean): 0.483 (5.8) | Random effect CL/F ∼ V1/F (covariance) ([1]; bootstrap mean): 0.562 (8.1) | Random effect V1/F (inter-individual variability) ([1]; bootstrap mean): 0.729 (11.0) | Residual error σ (proportional) ([1]; bootstrap mean): 0.304 (3.4) | Td ∼ Patient (covariate coefficient) ([1]; bootstrap mean): −0.403 (−27.9) | CL/F ([1]; bootstrap mean (n = 1,000)): 13.8 (3.7) l h^−1 | Ka ([1]; bootstrap mean (n = 1,000)): 1.38 (13.7) h^−1 | Q/F ([1]; bootstrap mean (n = 1,000)): 4.04 (16.8) l h^−1 | Td ([1]; bootstrap mean (n = 1,000)): 2.22 (7.2) h | V1/F ([1]; bootstrap mean (n = 1,000)): 189 (5.6) l | V2/F ([1]; bootstrap mean (n = 1,000)): 59.1 (9.1) l | Effect of age and BW on PK properties ([1]; covariate screening): no effect | Decrease of bioavailability (F) for each 100 mg dose increase ([1]; dose > 100 mg, linear model): 12.9% | Covariance of inter-individual variability of CL/F and V1/F ([1]; final model): 56.5% | Inter-individual variability for CL/F ([1]; final model): 48.5% | Inter-individual variability for V1/F ([1]; final model): 73.6% | CL/F ∼ Female (covariate coefficient) ([1]; final model estimate (RSE%)): −0.251 (−14.2) | Q/F ([1]; final model estimate (RSE%)): 3.96 (14.7) l h^−1 | Random effect CL/F (inter-individual variability) ([1]; final model estimate (RSE%)): 0.485 (3.8) | Random effect CL/F ∼ V1/F (covariance) ([1]; final model estimate (RSE%)): 0.565 (5.1) | Random effect V1/F (inter-individual variability) ([1]; final model estimate (RSE%)): 0.736 (6.9) | Residual error σ (proportional) ([1]; final model estimate (RSE%)): 0.305 (0.7) | Td ∼ Patient (covariate coefficient) ([1]; final model estimate (RSE%)): −0.416 (−10.7) | V2/F ([1]; final model estimate (RSE%)): 58.6 (6.9) l | Ka ∼ Food1 (covariate coefficient) ([1]; final model estimate (RSE%), food = 1, evening, fasted at least 4 h after dinner): −1.71 (−5.5) | F ∼ Food1 (covariate coefficient) ([1]; final model estimate (RSE%), food = 1, fasted at least 4 h): −0.341 (−26.3) | F ∼ Food2 (covariate coefficient) [1, 8]: −0.485 (−31.2) | Ka ∼ Food2 (covariate coefficient) [1, 8]: −2.40 (−3.7) | Td (duration of zero-order absorption) ([1]; final model estimate (RSE%), healthy volunteers): 2.17 h and 2.17 (4.4) h | Higher CL/F in male subjects than females ([1]; human, in vivo): 22.2% | Zero-order absorption duration (Td) ([1]; patients): 1.43 h | Decrease of F by high-fat meal ([1]; vs fasted): 38.5% | Decrease of Ka by high-fat meal ([1]; vs fasted): 90.9% | Decrease in Cmax,ss ([2]; after a high-fat meal, model simulated): 58.9% | AUC ([2]; empirical Bayes estimates, lower end of range, read-out: AUCss, 5th percentile of the population): 3260 ng·h/mL | AUC ([2]; empirical Bayes estimates, upper end of range, read-out: AUCss, 95th percentile of the population): 17400 ng·h/mL | Cmax ([2]; lower end of range, read-out: Cmax,ss, 5th percentile of the population): 182 ng/mL | Cmax ([2]; upper end of range, read-out: Cmax,ss, 95th percentile of the population): 1270 ng/mL | Decrease in AUCss [2, 9]: 28.9% | Decrease in Cmax,ss [2, 9]: 46.1% | Decrease in Ctrough,ss [2, 9]: 10.0% | Steady state exposures (AUCss, Ctrough,ss, Cmax,ss) higher in female than male subjects ([2]; in vivo): 15.1–54.0% | Difference in exposures between patients and healthy volunteers ([2]; steady state): no difference in exposures | Decrease in Ctrough,ss ([2]; with a high-fat meal): 3.52%
Compound: COC(=O)NC(C(=O)N1CCCC1c1ncc(-c2ccc(-c3ccc(-c4ccc5nc(C6CCCN6C(=O)C(NC(=O)OC)C(C)C)[nH]c5c4)c4c3C3CCC4C3)cc2)[nH]1)C(C)C (stereo not drawn) [yimitasvir]
CL/F ∼ ALT (covariate coefficient, power) ([1]; bootstrap mean): −0.0955 (−15.3) | CL/F ∼ ALT (covariate coefficient, power) ([1]; final model estimate (RSE%), baseline ALT normalised to median): −0.0950 (−21.2) | Ka ([1]; final model estimate (RSE%), first-order absorption rate, typical healthy male volunteer, ALT 31.6 IU l^−1, fasted): 1.31 (7.2) h^−1 | CL/F (apparent oral clearance) ([1]; final model estimate (RSE%), typical healthy male volunteer, ALT 31.6 IU l^−1, fasted): 13.8 l h^−1 and 13.8 (4.1) l h^−1 | Vd/F ([1]; human, plasma, oral, final model estimate (RSE%), typical healthy male volunteer, ALT 31.6 IU l^−1, fasted, read-out: V1/F (central volume of distribution)): 188 L | Magnitude of ALT on the steady-state exposure ([2]; healthy volunteers with extreme ALT values (5th and 95th percentiles) relative to typical): ~30% | AUC ([2]; male, typical subject: male, healthy volunteer, fasted 10 h, ALT=31.6 IU l^-1, read-out: AUCss, base): 7250 ng·h/mL | Cmax ([2]; male, typical subject: male, healthy volunteer, fasted 10 h, ALT=31.6 IU l^-1, read-out: Cmax,ss, base): 540 ng/mL | Dose proportionality of exposure ([3]; 30 to 200 mg administered during the night (4 h after dinner)): near dose-proportional increase in exposure | Median time to peak concentration (Tmax) ([3]; evening after dinner for more than 4 h): 4 to 12 h | Metabolism in hepatic microsomes [4]: No metabolism | Metabolism in hepatic microsomes [5]: No metabolism | Metabolism in hepatic microsomes [6]: No metabolism | P-gp inhibition [7]: inhibitor | P-gp substrate [7]: substrate
